Source: patent publication US20230212229A1 (priority 2021, published 2023)
Values joined by “and” are separate entries in the source; they are usually repeats but may differ in a detail not shown here. Equal entries are not always repeated. Where two headings read alike, the source gives them in different places.

Experiments:
IFN-β = type: in vivo, ACE2 transgenic mice; conditions: for IFN-β in serum: 0.5 mg NIP-V, individual mice n = 8
Ifnb1 mRNA = type: in vivo, ACE2 transgenic mice; conditions: for Ifnb1 mRNA: relative to unstimulated mice, individual mice n = 8
Isg56 mRNA = type: in vivo, ACE2 transgenic mice; conditions: for Isg56 mRNA: relative to unstimulated mice, individual mice n = 8
SARS-CoV-2 genomic RNA = test: qPCR of the load of SARS-CoV-2 genomic RNA in spleen, liver and lung tissues; type: in vivo, ACE2 transgenic mice; conditions: for SARS-CoV-2 genomic RNA: individual mice n = 8
SARS-CoV-2 N protein = conditions: 0.5 mg NIP-V; lungs 24 h after infection; versus PBS+SARS-CoV-2
SARS-CoV-2 [1] = type: in vivo, ACE2 transgenic mice; conditions: for SARS-CoV-2 copies/μL: lung tissue, 0.5 mg NIP-V injected 1 h before intranasal 1×10^5 TCID50, individual mice n = 8
SARS-CoV-2 S protein = type: in vivo, ACE2 transgenic mice; conditions: 0.5 mg NIP-V; lungs 24 h after infection; versus PBS+SARS-CoV-2
MAVS oligomerization = type: cell-based; conditions: HEK 293T, Myc-NP transfected; 50 μM or 100 μM NIP-V 1 h before SeV stimulation for 8 h
SARS-CoV-2 [2] = type: in vivo, ACE2 transgenic mice; conditions: lungs 24 h after infection
[3] = NIP-V treatment versus PBS-treated group

Q: What does the source list for “IHKNLLIVQDKFPPRRRQRRKKRG [NIP-V, interfering peptide targeting amino acids 346 to 357 of the SARS-CoV-2 N protein dimerization domain, fused with HIV-TAT]”?
A: content of IFN-β in serum (in words) (IFN-β; NIP-V-treated groups versus PBS-treated groups, 16 h and 24 h): significantly higher than that in the PBS-treated group; IFN-β in serum (IFN-β; 16 h after SARS-CoV-2 infection): 52.44 pg/mL and 46.60 pg/mL and 50.21 pg/mL and 75.33 pg/mL and 37.97 pg/mL and 52.98 pg/mL and 68.93 pg/mL and 48.49 pg/mL; IFN-β in serum (IFN-β; 24 h after SARS-CoV-2 infection): 38.29 pg/mL and 38.61 pg/mL and 34.78 pg/mL and 30.95 pg/mL and 44.88 pg/mL and 37.02 pg/mL and 35.42 pg/mL and 45.20 pg/mL; Ifnb1 mRNA (Ifnb1 mRNA; Liver, 16 h): 52.55 Fold and 86.45 Fold and 85.91 Fold and 111.15 Fold and 85.02 Fold and 132.00 Fold and 68.88 Fold and 81.36 Fold; Ifnb1 mRNA (Ifnb1 mRNA; Liver, 24 h): 22.59 Fold and 79.02 Fold and 29.53 Fold and 33.69 Fold and 42.93 Fold and 49.66 Fold and 31.43 Fold and 45.92 Fold; Ifnb1 mRNA (Ifnb1 mRNA; Lung, 16 h): 186.37 Fold and 302.75 Fold and 202.16 Fold and 145.17 Fold and 113.93 Fold and 133.62 Fold and 259.88 Fold and 148.33 Fold; Ifnb1 mRNA (Ifnb1 mRNA; Lung, 24 h): 82.49 Fold and 165.42 Fold and 112.99 Fold and 126.62 Fold and 84.22 Fold and 36.61 Fold and 22.54 Fold and 46.19 Fold; expression of Ifnb1 mRNA in spleen, liver and lung tissues (in words) (Ifnb1 mRNA; [3]): increase the expression; Ifnb1 mRNA (Ifnb1 mRNA; Spleen, 16 h): 87.27 Fold and 42.74 Fold and 73.72 Fold and 58.30 Fold and 67.91 Fold and 98.19 Fold and 64.75 Fold and 70.43 Fold; Ifnb1 mRNA (Ifnb1 mRNA; Spleen, 24 h): 45.66 Fold and 36.50 Fold and 51.66 Fold and 47.70 Fold and 40.76 Fold and 71.38 Fold and 47.81 Fold and 45.86 Fold; Isg56 mRNA (Isg56 mRNA; Liver, 16 h): 30.49 Fold and 18.13 Fold and 27.16 Fold and 42.29 Fold and 27.58 Fold and 35.86 Fold and 25.80 Fold and 29.09 Fold; Isg56 mRNA (Isg56 mRNA; Liver, 24 h): 14.51 Fold and 10.01 Fold and 7.41 Fold and 10.47 Fold and 12.89 Fold and 12.03 Fold and 9.46 Fold and 5.61 Fold; Isg56 mRNA (Isg56 mRNA; Lung, 16 h): 92.65 Fold and 109.88 Fold and 67.64 Fold and 46.59 Fold and 99.03 Fold and 85.62 Fold and 91.13 Fold and 26.35 Fold; Isg56 mRNA (Isg56 mRNA; Lung, 24 h): 232.32 Fold and 263.20 Fold and 152.15 Fold and 131.60 Fold and 144.01 Fold and 188.71 Fold and 205.07 Fold and 374.81 Fold; expression of Isg56 mRNA in spleen, liver and lung tissues (in words) (Isg56 mRNA; [3]): increase the expression; Isg56 mRNA (Isg56 mRNA; Spleen, 16 h): 121.34 Fold and 87.49 Fold and 110.12 Fold and 85.19 Fold and 94.54 Fold and 59.17 Fold and 76.17 Fold and 82.88 Fold; Isg56 mRNA (Isg56 mRNA; Spleen, 24 h): 73.25 Fold and 63.36 Fold and 55.41 Fold and 62.68 Fold and 45.16 Fold and 32.90 Fold and 56.97 Fold and 36.50 Fold; SARS-CoV-2 genomic RNA (SARS-CoV-2 genomic RNA; Liver, 16 h): 2.09E+02 Fold and 1.42E+02 Fold and 8.55E+01 Fold and 1.08E+02 Fold and 1.69E+02 Fold and 6.80E+02 Fold and 8.67E+01 Fold and 2.38E+02 Fold; SARS-CoV-2 genomic RNA (SARS-CoV-2 genomic RNA; Liver, 24 h): 6.41E+01 Fold and 4.17E+01 Fold and 4.33E+01 Fold and 1.70E+02 Fold and 5.83E+01 Fold and 5.13E+01 Fold and 3.93E+01 Fold and 2.38E+01 Fold; SARS-CoV-2 genomic RNA (SARS-CoV-2 genomic RNA; Lung, 16 h): 5.93E+03 Fold and 4.43E+03 Fold and 2.73E+03 Fold and 1.61E+04 Fold and 1.86E+04 Fold and 1.48E+04 Fold and 8.10E+03 Fold and 3.62E+03 Fold; SARS-CoV-2 genomic RNA (SARS-CoV-2 genomic RNA; Lung, 24 h): 4.74E+03 Fold and 3.19E+03 Fold and 3.72E+03 Fold and 1.23E+03 Fold and 1.56E+03 Fold and 1.26E+03 Fold and 1.49E+04 Fold and 0.00E+00 Fold; SARS-CoV-2 genomic RNA (SARS-CoV-2 genomic RNA; Spleen, 16 h): 1.66E+03 Fold and 1.40E+03 Fold and 1.37E+03 Fold and 4.78E+02 Fold and 1.60E+03 Fold and 8.65E+02 Fold and 1.33E+03 Fold and 1.15E+03 Fold; SARS-CoV-2 genomic RNA (SARS-CoV-2 genomic RNA; Spleen, 24 h): 4.18E+02 Fold and 3.11E+02 Fold and 2.38E+02 Fold and 1.85E+02 Fold and 4.43E+02 Fold and 1.35E+02 Fold and 2.56E+02 Fold and 7.20E+02 Fold; proliferation of SARS-CoV-2 in tissues (qPCR, in words) (SARS-CoV-2 genomic RNA; spleen, liver and lung, NIP-V treatment versus PBS-treated group): inhibit the proliferation of SARS-CoV-2; SARS-CoV-2 N protein signal in lung tissue (immunofluorescence) (SARS-CoV-2 N protein): weaker N protein signals can be detected; SARS-CoV-2 viral load in lung tissue (in words) (SARS-CoV-2 [1]; NIP-V-treated groups (2 and 4) versus PBS-treated groups, 16 h and 24 h): greatly reduced; SARS-CoV-2 copies/μL (SARS-CoV-2 [1]; 16 h after infection): 30 copies/μL and 76 copies/μL and 0 copies/μL (3×) and 2484 copies/μL and 131 copies/μL and 726 copies/μL; SARS-CoV-2 copies/μL (SARS-CoV-2 [1]; 24 h after infection): 3 copies/μL and 0 copies/μL (7×); SARS-CoV-2 S protein signal in lung tissue (immunohistochemistry) (SARS-CoV-2 S protein): much lower than that of the PBS+SARS-CoV-2 treated mice; MAVS oligomerization inhibited by SARS-CoV-2 N protein (SDD-PAGE) (MAVS oligomerization): restore the MAVS oligomerization in a dose-dependent manner; lung lesions caused by SARS-CoV-2 infection (HE staining) (SARS-CoV-2 [2]; 0.5 mg NIP-V 1 h before infection, versus PBS+SARS-CoV-2): significantly reduce the lung lesions; thickening of alveolar septa (HE staining) (SARS-CoV-2 [2]; 0.5 mg NIP-V): not significant; occurrence of hemagglutination and inflammatory cell infiltration (HE staining) (SARS-CoV-2 [2]; 0.5 mg NIP-V, versus PBS+SARS-CoV-2 group): significantly lower than that in the PBS+SARS-CoV-2 group
